Experimental data published in ChEMBL document CHEMBL1201862, “PubChem BioAssay data set” (2004).
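The compound was tested at five concentrations on cells cultured in 96-well plates, with a 48-hour exposure period. GI50: concentration for 50% inhibition of growth.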 Activity calls are given as the source filed them. No stated cut-off is given here; in the data, active = GI50 up to about 1.1 µM and inactive = higher.

What was measured:
Test in all cases: growth of human tumour cells (NCI), 48 h
ACHN = system: ACHN
COLO 205 = system: COLO 205
HCC 2998 = system: HCC 2998
HCT-15 = system: HCT-15
HOP-62 = system: HOP-62
HOP-92 = system: HOP-92
IGROV-1 = system: IGROV-1
LOX IMVI = system: LOX IMVI
M14 = system: M14
MOLT-4 = system: MOLT-4
NCI-H522 = system: NCI-H522
OVCAR-8 = system: OVCAR-8
SF-268 = system: SF-268
SF-295 = system: SF-295
SK-MEL-2 = system: SK-MEL-2
SK-MEL-5 = system: SK-MEL-5
SK-OV-3 = system: SK-OV-3
SNB-19 = system: SNB-19
U-251 = system: U-251
NCI-H226 = system: NCI-H226

SMILES	GI50 (ACHN)	GI50 (COLO 205)	GI50 (HCC 2998)	GI50 (HCT-15) [µM]	GI50 (HOP-62)	GI50 (HOP-92)	GI50 (IGROV-1)	GI50 (LOX IMVI)	GI50 (M14)	GI50 (MOLT-4)	GI50 (NCI-H522)	GI50 (OVCAR-8)	GI50 (SF-268)	GI50 (SF-295)	GI50 (SK-MEL-2)	GI50 (SK-MEL-5)	GI50 (SK-OV-3)	GI50 (SNB-19)	GI50 (U-251)	GI50 (NCI-H226)
C=CC[N+]12CN3CN(CN(C3)C1)C2	21.3 µM (inactive)	25.9 µM (inactive)	24 µM (inactive)	22.6	> 100 µM (inactive)	23.8 µM (inactive)	27.4 µM (inactive)	27 µM (inactive)	25.8 µM (inactive)	33.4 µM (inactive)	14.3 µM (inactive)	24 µM (inactive)	24.6 µM (inactive)	> 100 µM (inactive)	42.1 µM (inactive)	36.6 µM (inactive)	> 100 µM (inactive)	40 µM (inactive)	31.9 µM (inactive)	
COc1ccc2c(c1)OCCC1=C2SCC2(C)CCN=C12 (stereo not drawn)		> 100 µM (inactive)	> 10 µM (inactive)		> 100 µM (inactive)		> 100 µM (inactive)	> 100 µM (inactive)	> 100 µM (inactive)	52 µM (inactive)	> 100 µM (inactive)	> 100 µM (inactive)	> 100 µM (inactive)	> 100 µM (inactive)		46.5 µM (inactive)	> 100 µM (inactive)	> 100 µM (inactive)	> 100 µM (inactive)	35.6 µM (inactive)
CCOC(=O)CC[C@H](NC(=O)c1nc[nH]c1/N=N/N(C)C)C(=O)OCC	> 100 µM (inactive)	> 100 µM (inactive)	> 100 µM (inactive)	> 100	> 100 µM (inactive)		> 100 µM (inactive)	> 100 µM (inactive)	> 100 µM (inactive)	> 100 µM (inactive)	> 100 µM (inactive)	> 100 µM (inactive)	> 100 µM (inactive)	> 100 µM (inactive)	> 100 µM (inactive)	> 100 µM (inactive)	> 100 µM (inactive)	> 100 µM (inactive)	> 100 µM (inactive)	> 100 µM (inactive)
CCC1=CCN(c2ccc(C)cc2)OC1c1ccc(OC)cc1 (stereo not drawn)	> 100 µM (inactive)	> 100 µM (inactive)	70.5 µM (inactive)	47	> 100 µM (inactive)		> 100 µM (inactive)	> 100 µM (inactive)	52.6 µM (inactive)	> 100 µM (inactive)	23.6 µM (inactive)	> 100 µM (inactive)	> 100 µM (inactive)	92.7 µM (inactive)	32.3 µM (inactive)		> 100 µM (inactive)	> 100 µM (inactive)	73.3 µM (inactive)	> 100 µM (inactive)
Cc1ccc(S(=O)(=O)NC(=O)NC(CCCCNC(=N)N)C(=O)O)cc1 (stereo not drawn)	> 100 µM (inactive)	> 100 µM (inactive)		> 100	> 100 µM (inactive)	> 100 µM (inactive)	> 100 µM (inactive)	> 100 µM (inactive)	> 100 µM (inactive)	> 100 µM (inactive)	> 100 µM (inactive)	> 100 µM (inactive)	> 100 µM (inactive)	> 100 µM (inactive)	> 100 µM (inactive)	> 100 µM (inactive)	> 100 µM (inactive)	> 100 µM (inactive)	> 100 µM (inactive)	
CC(=O)[C@@]1(c2ccccc2)CC2(CCN(C)CC2)O[C@H]1C	> 100 µM (inactive)	> 100 µM (inactive)		> 100	> 100 µM (inactive)	> 100 µM (inactive)	> 100 µM (inactive)	> 100 µM (inactive)	> 100 µM (inactive)	> 100 µM (inactive)	> 100 µM (inactive)	> 100 µM (inactive)	> 100 µM (inactive)	> 100 µM (inactive)		> 100 µM (inactive)	> 100 µM (inactive)	> 100 µM (inactive)	> 100 µM (inactive)	> 100 µM (inactive)
O=C1NC2OCC(O)C(O1)C2O (stereo not drawn)	> 100 µM (inactive)	> 100 µM (inactive)		> 100	> 100 µM (inactive)	> 100 µM (inactive)	> 100 µM (inactive)	> 100 µM (inactive)	> 100 µM (inactive)	> 100 µM (inactive)	> 100 µM (inactive)	> 100 µM (inactive)	> 100 µM (inactive)	> 100 µM (inactive)	> 100 µM (inactive)	> 100 µM (inactive)	> 100 µM (inactive)	> 100 µM (inactive)	> 100 µM (inactive)	> 100 µM (inactive)
C(=C\c1csnn1)/c1cccnc1	> 100 µM (inactive)	> 100 µM (inactive)	> 100 µM (inactive)	> 100	> 100 µM (inactive)			> 100 µM (inactive)	> 100 µM (inactive)	> 100 µM (inactive)	> 100 µM (inactive)	> 100 µM (inactive)	> 100 µM (inactive)	> 100 µM (inactive)	> 100 µM (inactive)		> 100 µM (inactive)	> 100 µM (inactive)	> 100 µM (inactive)	> 100 µM (inactive)
C[C@]12CC[C@H](OC3CCCCO3)CC1=CC[C@@H]1C2CC[C@]2(C)/C(=N/OCCC#N)CCC12 (stereo partly drawn)	33.8 µM (inactive)		> 100 µM (inactive)	> 100	> 100 µM (inactive)	21.9 µM (inactive)	> 100 µM (inactive)	6.38 µM (inactive)	> 100 µM (inactive)		18.5 µM (inactive)	34.2 µM (inactive)		21.3 µM (inactive)	56.2 µM (inactive)	7.74 µM (inactive)	37.5 µM (inactive)	30.7 µM (inactive)	40.4 µM (inactive)	
COc1ccc(-c2csc3c2[N+]2(C)C=CC=C2C3N2CCCC2)cc1 (stereo not drawn)	44.8 µM (inactive)	13.6 µM (inactive)		37.9	27.2 µM (inactive)	18.7 µM (inactive)	11.2 µM (inactive)	35 µM (inactive)	29.8 µM (inactive)	27.5 µM (inactive)	2.43 µM (inactive)	17.5 µM (inactive)	22 µM (inactive)	10.6 µM (inactive)	10.6 µM (inactive)	8.59 µM (inactive)	49.1 µM (inactive)	26.6 µM (inactive)	7.01 µM (inactive)	2.21 µM (inactive)
CN1CN(c2ccccc2)C2(CCN(CCCC(=O)c3cccs3)CC2)C1=O	40.2 µM (inactive)	17.3 µM (inactive)	19.5 µM (inactive)	34.7	19.3 µM (inactive)		41.3 µM (inactive)	47.1 µM (inactive)	95.5 µM (inactive)	32.8 µM (inactive)	> 100 µM (inactive)	55.8 µM (inactive)	74.8 µM (inactive)	33 µM (inactive)		22.9 µM (inactive)	38.4 µM (inactive)	47.5 µM (inactive)	45.7 µM (inactive)	34.5 µM (inactive)
CN(C)/N=C(/c1nc2ccc(Cl)cc2nc1O)C(O)c1ccc(C(O)/C(=N\N(C)C)c2nc3ccc(Cl)cc3nc2O)cc1 (stereo not drawn)	> 100 µM (inactive)	> 100 µM (inactive)	> 100 µM (inactive)		93.1 µM (inactive)	81.7 µM (inactive)	> 100 µM (inactive)		> 100 µM (inactive)	52.4 µM (inactive)	> 100 µM (inactive)	> 100 µM (inactive)	> 100 µM (inactive)	> 100 µM (inactive)	> 100 µM (inactive)	> 100 µM (inactive)	> 100 µM (inactive)	> 100 µM (inactive)		
C(=C\Nc1ccc(Oc2ccccc2)cc1)/C=N/c1ccc(Oc2ccccc2)cc1	19.6 µM (inactive)	20 µM (inactive)	15.9 µM (inactive)	19.5	20.7 µM (inactive)	24.3 µM (inactive)	17.1 µM (inactive)	15 µM (inactive)		> 10 µM (inactive)	20 µM (inactive)	20.2 µM (inactive)	21 µM (inactive)	15.9 µM (inactive)				17.3 µM (inactive)	19.1 µM (inactive)	55.3 µM (inactive)
CCCCCCCC(=O)OCC1OC(n2cc(F)c(=O)[nH]c2=O)C(NC(=O)OCc2ccccc2)C(OC(=O)CCCCCCC)C1O (stereo not drawn)	39.2 µM (inactive)	26 µM (inactive)	35.2 µM (inactive)	26.5	71.8 µM (inactive)	23.2 µM (inactive)	> 100 µM (inactive)	15.1 µM (inactive)	25.4 µM (inactive)	9.93 µM (inactive)	16.7 µM (inactive)	34 µM (inactive)	29 µM (inactive)	57 µM (inactive)	21.6 µM (inactive)	0.309 µM (active)	> 100 µM (inactive)	0.11 µM (active)	22.9 µM (inactive)	
S=C(S)N1CCN(c2ccccc2)CC1	> 100 µM (inactive)	57.5 µM (inactive)	71.3 µM (inactive)	> 100	> 100 µM (inactive)	> 100 µM (inactive)	> 100 µM (inactive)	32.9 µM (inactive)	> 100 µM (inactive)		> 100 µM (inactive)	> 100 µM (inactive)	88.3 µM (inactive)	> 100 µM (inactive)	37.9 µM (inactive)	20.7 µM (inactive)		> 100 µM (inactive)	48.5 µM (inactive)	
C=C1CCC2[C@@H](CCC3[C@]2(C)CCC[C@]3(C)C(=O)OC)C1CCO (stereo partly drawn)	14.8 µM (inactive)	13 µM (inactive)		11.2	19.8 µM (inactive)	7.08 µM (inactive)	13.6 µM (inactive)		13.6 µM (inactive)	4 µM (inactive)	5.2 µM (inactive)	18.8 µM (inactive)	11.3 µM (inactive)	16.3 µM (inactive)	15.1 µM (inactive)	4.53 µM (inactive)	29.3 µM (inactive)	14 µM (inactive)	11.1 µM (inactive)	14.4 µM (inactive)
